The subject of assay [1] is C57BL/6 mice fed a high-fat diet. In words: Mouse intestinal gene expression (qPCR, colon and distal small intestine). The conditions noted are these: high-fat diet with 200 mg/kg S3QEL, 16 weeks. In kind it is in vivo. The method, then: Six-week-old C57BL/6 mice were purchased from Jackson Laboratories and acclimated in-house for two weeks before the study. At 8 weeks of age, mice were randomized into groups based on weight and fed either a control semi-purified diet D12450J containing 10% fat kcal, a 60% fat kcal diet D12492, or a custom-mixed 60% fat kcal diet D12492 containing 200 mg/kg of S3QELs. Diets were purchased from Research Diets and were gamma-irradiated. Mice were maintained on the experimental diets for 16 weeks in total. Food consumption was measured daily in a semiquantitative fashion. The food was weighed before placing in the cage, and then weighed again 24 h later. […]
RNA from the fly intestine lysates, and the aqueous phase from the mouse intestinal Trizol lysates, were further processed to isolate RNA using a Quick-RNA™ MiniPrep Kit (Zymo Research) according to the manufacturer's guidelines. […] The quantity and quality of fly and mouse RNA samples were determined using a NanoDrop 1000 spectrophotometer (Thermo Scientific). 1 μg of total RNA from either fly or mouse intestine was used in a total reaction volume of […] containing 4 μL of iScript Reverse Transcription Supermix (Bio-Rad) to synthesize cDNA according to the manufacturer's guidelines. cDNA was stored at −20° C. before carrying out quantitative RTPCR. […]

Assay [2] shares this test system. The assay is described as follows: Mouse intestinal permeability (plasma FITC-dextran after gavage and fecal albumin). The class given is in vivo. The note with it: high-fat diet (60% kcal) with 200 mg/kg S3QEL in diet, 16 weeks; plasma FITC-dextran and fecal albumin (FIG. 5A, B). The procedure:
Six-week-old C57BL/6 mice were purchased from Jackson Laboratories and acclimated in-house for two weeks before the study. At 8 weeks of age, mice were randomized into groups based on weight and fed either a control semi-purified diet D12450J containing 10% fat kcal, a 60% fat kcal diet D12492, or a custom-mixed 60% fat kcal diet D12492 containing 200 mg/kg of S3QELs. Diets were purchased from Research Diets and were gamma-irradiated. Mice were maintained on the experimental diets for 16 weeks in total. Food consumption was measured daily in a semiquantitative fashion. The food was weighed before placing in the cage, and then weighed again 24 h later. The total food weight difference within 24 h was divided by the number of mice in the cage to determine average food consumption per mouse. All experiments involving the use of mice were reviewed and approved by the Institutional Animal Care and Use Committee (IACUC) of the Buck Institute.
Mice were fasted for 4 h prior to assay. […] Blood plasma samples were diluted appropriately using 1×PBS and FITC-dextran fluorescence was measured at Ex 485 nm/Em 535 nm. FITC-dextran amount was determined using standard curves generated from a known amount of FITC-dextran titrated in plasma from control or high fat-fed mice. […]

For the molecule `Cc1ccc(-n2ncc3c(N(Cc4ccccc4)C(C)C)ncnc32)cc1Cl` [S3QEL2.2], the “decrease in tight-junction gene expression” value in assay [1] (both colon and distal small intestine (FIG. 5C, FIG. 11)) is reported as “protected against the decrease”. Also, the “decrease in mucin gene expression” value in assay [1] (both colon and distal small intestine (FIG. 5D, FIG. 11)) is reported as “protected against the decrease”. Besides, the “increases in intestinal permeability in mice” value in assay [2] is on record as “strongly protected”.

These data come from US20220000873A1, “S3QELS TO PROTECT AGAINST INTESTINAL PERMEABILITY” (Buck Institute for Research on Aging, priority 2018, published 2022).
